For data set [1], the system named is Mus musculus. The data set can be described thus: Hypoglycemic activity in C57BL/6 DIO mouse model assessed as decrease in blood glucose AUC (0 to 120 mins) at 30 mg/kg administered via gavage twice daily for 28 days measured on day 29 by OGTT. Format: functional, organism-based. As to conditions: tested as the 2H-labelled form.
Data set [2] has as its system Mus musculus. The data set can be described thus: Hypoglycemic activity in C57BL/6 DIO mouse model assessed as fasting glucose levels at 30 mg/kg administered via gavage twice daily for 28 days measured on day 29 by OGTT. As to conditions: tested as the 2H-labelled form. Type of data set: functional, organism-based.
The nature of data set [3]: Clearance in Sprague-Dawley rat at 10 mg/kg, po administered as single dose by LC-PDA-MS/MS analysis. Format: ADME, organism-based. As to conditions: in vivo.
The subject of data set [4] is Mus musculus. The data set can be described thus: Hypoglycemic activity in C57BL/6 DIO mouse model assessed as decrease in blood glucose AUC (0 to 120 mins) at 30 mg/kg administered via gavage twice daily for 28 days measured before glucose challenge by OGTT. As to conditions: tested as the 2H-labelled form. Type of data set: functional, organism-based.
The nature of data set [5]: Half life in Sprague-Dawley rat at 10 mg/kg, po administered as single dose by LC-PDA-MS/MS analysis. As to conditions: in vivo. Type of data set: ADME, organism-based.
Data set [6] in a line: Plasma clearance in rat. Type of data set: ADME, organism-based.
Data set [7] is described as follows: Cmax in Sprague-Dawley rat at 10 mg/kg, po administered as single dose by LC-PDA-MS/MS analysis. Format: ADME, organism-based. Further details: dose 10 mg/kg, route oral. As to conditions: in vivo.
Data set [8] can be described thus: AUC (0 to 24 hrs) in Sprague-Dawley rat at 10 mg/kg, po administered as single dose by LC-PDA-MS/MS analysis. Format: ADME, organism-based. Further details: time < 24 hr, dose 10 mg/kg, route oral. As to conditions: in vivo.
The target of data set [9] is T1, Free fatty acid receptor 4 (Homo sapiens, UniProt Q5NUL3).
T1 sequence (Q5NUL3 whole entry): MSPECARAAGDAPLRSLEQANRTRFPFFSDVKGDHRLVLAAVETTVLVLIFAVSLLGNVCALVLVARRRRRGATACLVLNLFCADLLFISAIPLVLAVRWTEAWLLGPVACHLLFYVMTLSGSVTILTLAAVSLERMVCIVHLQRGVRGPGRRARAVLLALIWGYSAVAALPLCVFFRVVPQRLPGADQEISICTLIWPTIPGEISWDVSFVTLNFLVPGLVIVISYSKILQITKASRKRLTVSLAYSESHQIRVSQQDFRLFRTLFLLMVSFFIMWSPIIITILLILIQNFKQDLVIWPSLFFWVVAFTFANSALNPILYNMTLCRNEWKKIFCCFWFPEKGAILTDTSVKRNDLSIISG
The data set can be described thus: Agonist activity at human FFAR4 expressed in CHO cells assessed as beta-arrestin recruitment after 90 mins by luminescence assay. Type of data set: functional, cell-based. Background: Activated receptors often draw arrestin, which recruitment assays turn into a signal.

The test system of data set [10] is Mus musculus. The data set can be described thus: Toxicity in C57BL/6 DIO mouse model at 30 mg/kg administered via gavage twice daily for 28 days. Format: organism-based. As to conditions: in vivo, po, 672 h.

As usually defined, the CL/F is the apparent clearance, not corrected for the fraction that reaches the circulation. As a reminder, the half-life is the time needed for the level to fall by half in the phase considered. Higher therefore signals slow decline. What is called clearance is the volume of plasma or blood freed of the substance per unit of time. Higher therefore signals efficient removal. For orientation: Cmax means the highest concentration seen after dosing. The term AUC(0-t) denotes exposure summed from dosing to a finite time, without extrapolation to infinity. A low value points to low exposure. The term EC50 denotes the concentration that produces a half-maximal response.

Activity calls are given as the source filed them.

For `Cc1ccc(-c2ccc(F)cc2COc2ccc(CCC(=O)O)cc2)cc1`, the result with Mus musculus [1] and with Mus musculus [2] was Active. The compound further gave a CL/F in [3] of 61.2 mL/min/kg. Further, the result with Mus musculus [4] was inactive. Also, the half-life in data set [5] is 0.79 h. This compound also showed a clearance in data set [6] of 61.2 mL/min/kg. Besides, the concentration in data set [7] peaked (Cmax) at 969 ng/mL. In data set [8], the AUC(0-t) at 24 h turned out to be 1370 ng·h/mL.

Turning to `Cc1cc(OCCCS(C)(=O)=O)cc(C)c1-c1cccc(COc2ccc3c(c2)OC[C@H]3CC(=O)O)c1`, the EC50 in [9] is over 10 µM.

In the case of `[2H]C([2H])(Cc1ccc(OCc2cc(F)ccc2-c2ccc(C)cc2)cc1)C(=O)O`, the Activity entry with Mus musculus [10] is on record as “Non-Toxic”. This compound had a CL/F in data set [3] of 16.2 mL/min/kg. The compound also showed a half-life in [5] of 1.66 h. The highest concentration (Cmax) in [7] amounted to 2040 ng/mL. The AUC(0-t) at 24 h in data set [8] turned out to be 6280 ng·h/mL.

For the origin of these results see ChEMBL document CHEMBL4177656, “Improving metabolic stability with deuterium: The discovery of GPU-028, a potent free fatty acid receptor 4 agonists” (Bioorg Med Chem, 2017).
